# From ChEMBL document CHEMBL4507261, “Data for DCP probe A-192621” (2021)
# Assays:
# [1] = target: Cyclin-dependent kinase 16 (Homo sapiens) (UniProt Q00536); conditions: Compound concentration 1000.0 nM
# [2] = target: cGMP-dependent protein kinase 1 (Homo sapiens) (UniProt Q13976); conditions: Compound concentration 1000.0 nM
# [3] = target: Substance-K receptor (Homo sapiens) (UniProt P21452); test: NK2 (h) Eurofins-Cerep binding assay; design: ligand concentration 0.1 nM; conditions: filed as agonist, Compound concentration 10.0 uM
# [4] = target: Cyclin-dependent kinase 15 (Homo sapiens) (UniProt Q96Q40); conditions: Compound concentration 1000.0 nM
# [5] = target: MAP kinase-activated protein kinase 2 (Homo sapiens) (UniProt P49137); conditions: Compound concentration 1000.0 nM
# [6] = target: Serine/threonine-protein kinase TAO2 (Homo sapiens) (UniProt Q9UL54); conditions: Compound concentration 1000.0 nM
# [7] = target: Mitogen-activated protein kinase kinase kinase kinase 4 (Homo sapiens) (UniProt O95819); conditions: Compound concentration 1000.0 nM
# [8] = test system: Mast/stem cell growth factor receptor Kit (Homo sapiens), P10721 [V559D,V654A]; conditions: Compound concentration 1000.0 nM
# [9] = target: Serine/threonine-protein kinase PLK2 (Homo sapiens) (UniProt Q9NYY3); conditions: Compound concentration 1000.0 nM
# [10] = test system: ALK tyrosine kinase receptor (Homo sapiens), Q9UM73 [C1156Y]; conditions: Compound concentration 1000.0 nM
# [11] = target: MAO-A (amine oxidase [flavin-containing] A) (Rattus norvegicus, UniProt P21396); test: MAO-A Eurofins-Cerep binding assay; design: incubation time 60 min, incubation temperature 37°C, ligand concentration 10 nM; conditions: rat cerebral cortex (source of protein), probe [3H]Ro 41-1049 (10 nM), compound concentration 10 uM, read-out: % Inhibition of Control Specific Binding (Mean n=2)
# [12] = target: Protein kinase C theta type (Homo sapiens) (UniProt Q04759); conditions: Compound concentration 1000.0 nM
# [13] = target: Ribosomal protein S6 kinase alpha-4 (Homo sapiens) (UniProt O75676); conditions: Compound concentration 1000.0 nM
# [14] = target: Estrogen receptor (Homo sapiens) (UniProt P03372); test: Estrogen ER alpha (h) Eurofins-Cerep binding assay; design: ligand concentration 0.5 nM; conditions: filed as agonist, Compound concentration 10.0 uM
# [15] = test system: Mast/stem cell growth factor receptor Kit (Homo sapiens), P10721 [D816H]; conditions: Compound concentration 1000.0 nM
# [16] = target: Prostaglandin E2 receptor EP2 subtype (Homo sapiens) (UniProt P43116); test: EP2 (h) Eurofins-Cerep binding assay; design: ligand concentration 3 nM; conditions: filed as agonist, Compound concentration 10.0 uM
# [17] = target: Calcium/calmodulin-dependent protein kinase type II subunit delta (Homo sapiens) (UniProt Q13557); conditions: Compound concentration 1000.0 nM
# [18] = test system: Tyrosine-protein kinase ABL1 (Homo sapiens), P00519 [Q252H]; conditions: Compound concentration 1000.0 nM
# [19] = target: Testis-specific serine/threonine-protein kinase 3 (Homo sapiens) (UniProt Q96PN8); conditions: Compound concentration 1000.0 nM
# [20] = target: Dual specificity mitogen-activated protein kinase kinase 2 (Homo sapiens) (UniProt P36507); conditions: Compound concentration 1000.0 nM
# [21] = target: Mitogen-activated protein kinase 4 (Homo sapiens) (UniProt P31152); conditions: Compound concentration 1000.0 nM
# [22] = target: AP2-associated protein kinase 1 (Homo sapiens) (UniProt Q2M2I8); conditions: Compound concentration 1000.0 nM
# [23] = target: Serine/threonine-protein kinase PRP4 homolog (Homo sapiens) (UniProt Q13523); conditions: Compound concentration 1000.0 nM
# [24] = target: Mitogen-activated protein kinase kinase kinase kinase 2 (Homo sapiens) (UniProt Q12851); conditions: Compound concentration 1000.0 nM
# [25] = target: Cyclin-dependent kinase 4 (Homo sapiens) (UniProt P11802); conditions: Compound concentration 1000.0 nM
# [26] = target: Ribosomal protein S6 kinase alpha-1 (Homo sapiens) (UniProt Q15418); conditions: Compound concentration 1000.0 nM
# [27] = target: Dual specificity protein kinase CLK2 (Homo sapiens) (UniProt P49760); conditions: Compound concentration 1000.0 nM
# [28] = target: Serine/threonine-protein kinase Sgk1 (Homo sapiens) (UniProt O00141); conditions: Compound concentration 1000.0 nM
# [29] = target: Prostaglandin G/H synthase 1 (Homo sapiens) (UniProt P23219); test: COX1(h) Eurofins-Cerep enzyme and uptake assay; conditions: Compound concentration 10.0 uM
# [30] = target: Platelet-derived growth factor receptor beta (Homo sapiens) (UniProt P09619); conditions: Compound concentration 1000.0 nM
# [31] = target: Serine/threonine-protein kinase RIO2 (Homo sapiens) (UniProt Q9BVS4); conditions: Compound concentration 1000.0 nM
# [32] = target: Mitogen-activated protein kinase kinase kinase 9 (Homo sapiens) (UniProt P80192); conditions: Compound concentration 1000.0 nM
# [33] = target: Angiopoietin-1 receptor (Homo sapiens) (UniProt Q02763); conditions: Compound concentration 1000.0 nM
# [34] = target: Serine/threonine-protein kinase D3 (Homo sapiens) (UniProt O94806); conditions: Compound concentration 1000.0 nM
# [35] = target: Serine/threonine-protein kinase WNK3 (Homo sapiens) (UniProt Q9BYP7); conditions: Compound concentration 1000.0 nM
# [36] = target: Serine/threonine-protein kinase 17B (Homo sapiens) (UniProt O94768); conditions: Compound concentration 1000.0 nM
# [37] = target: Casein kinase II subunit alpha (Homo sapiens) (UniProt P68400); conditions: Compound concentration 1000.0 nM
# [38] = target: Mitogen-activated protein kinase kinase kinase kinase 5 (Homo sapiens) (UniProt Q9Y4K4); conditions: Compound concentration 1000.0 nM
# [39] = target: Mitogen-activated protein kinase kinase kinase 12 (Homo sapiens) (UniProt Q12852); conditions: Compound concentration 1000.0 nM
# [40] = target: BMP-2-inducible protein kinase (Homo sapiens) (UniProt Q9NSY1); conditions: Compound concentration 1000.0 nM
# [41] = target: Protein-tyrosine kinase 6 (Homo sapiens) (UniProt Q13882); conditions: Compound concentration 1000.0 nM
# [42] = target: Myosin-IIIb (Homo sapiens) (UniProt Q8WXR4); conditions: Compound concentration 1000.0 nM
# [43] = target: ALK tyrosine kinase receptor (Homo sapiens) (UniProt Q9UM73); conditions: Compound concentration 1000.0 nM
# [44] = target: Mitogen-activated protein kinase 9 (Homo sapiens) (UniProt P45984); conditions: Compound concentration 1000.0 nM
# Chain of Serine/threonine-protein kinase D3 (Homo sapiens) (O94806 whole entry): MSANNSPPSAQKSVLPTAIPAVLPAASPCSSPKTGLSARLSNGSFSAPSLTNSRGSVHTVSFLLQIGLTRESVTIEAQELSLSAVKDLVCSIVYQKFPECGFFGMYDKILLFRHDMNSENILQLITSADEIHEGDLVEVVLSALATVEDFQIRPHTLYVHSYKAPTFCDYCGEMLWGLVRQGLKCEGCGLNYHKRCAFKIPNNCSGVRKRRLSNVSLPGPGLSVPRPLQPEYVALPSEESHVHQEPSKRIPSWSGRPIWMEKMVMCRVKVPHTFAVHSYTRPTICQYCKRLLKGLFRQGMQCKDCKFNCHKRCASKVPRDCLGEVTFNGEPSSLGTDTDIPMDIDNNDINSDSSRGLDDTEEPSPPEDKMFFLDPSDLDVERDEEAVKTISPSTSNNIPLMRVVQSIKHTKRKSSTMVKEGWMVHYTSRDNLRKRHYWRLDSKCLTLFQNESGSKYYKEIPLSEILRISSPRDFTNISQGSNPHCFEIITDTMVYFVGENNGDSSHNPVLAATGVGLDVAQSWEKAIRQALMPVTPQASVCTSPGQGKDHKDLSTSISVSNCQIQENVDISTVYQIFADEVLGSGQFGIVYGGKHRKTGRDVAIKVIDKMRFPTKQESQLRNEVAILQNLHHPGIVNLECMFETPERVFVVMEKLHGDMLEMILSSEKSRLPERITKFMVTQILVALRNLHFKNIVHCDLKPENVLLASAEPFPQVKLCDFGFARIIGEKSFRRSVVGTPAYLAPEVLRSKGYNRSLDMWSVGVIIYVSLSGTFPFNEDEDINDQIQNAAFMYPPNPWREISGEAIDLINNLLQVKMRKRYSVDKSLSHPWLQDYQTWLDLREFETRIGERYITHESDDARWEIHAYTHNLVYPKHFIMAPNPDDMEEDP
# Chain of Mitogen-activated protein kinase kinase kinase kinase 4 (Homo sapiens) (O95819 2-1239 limits assumed): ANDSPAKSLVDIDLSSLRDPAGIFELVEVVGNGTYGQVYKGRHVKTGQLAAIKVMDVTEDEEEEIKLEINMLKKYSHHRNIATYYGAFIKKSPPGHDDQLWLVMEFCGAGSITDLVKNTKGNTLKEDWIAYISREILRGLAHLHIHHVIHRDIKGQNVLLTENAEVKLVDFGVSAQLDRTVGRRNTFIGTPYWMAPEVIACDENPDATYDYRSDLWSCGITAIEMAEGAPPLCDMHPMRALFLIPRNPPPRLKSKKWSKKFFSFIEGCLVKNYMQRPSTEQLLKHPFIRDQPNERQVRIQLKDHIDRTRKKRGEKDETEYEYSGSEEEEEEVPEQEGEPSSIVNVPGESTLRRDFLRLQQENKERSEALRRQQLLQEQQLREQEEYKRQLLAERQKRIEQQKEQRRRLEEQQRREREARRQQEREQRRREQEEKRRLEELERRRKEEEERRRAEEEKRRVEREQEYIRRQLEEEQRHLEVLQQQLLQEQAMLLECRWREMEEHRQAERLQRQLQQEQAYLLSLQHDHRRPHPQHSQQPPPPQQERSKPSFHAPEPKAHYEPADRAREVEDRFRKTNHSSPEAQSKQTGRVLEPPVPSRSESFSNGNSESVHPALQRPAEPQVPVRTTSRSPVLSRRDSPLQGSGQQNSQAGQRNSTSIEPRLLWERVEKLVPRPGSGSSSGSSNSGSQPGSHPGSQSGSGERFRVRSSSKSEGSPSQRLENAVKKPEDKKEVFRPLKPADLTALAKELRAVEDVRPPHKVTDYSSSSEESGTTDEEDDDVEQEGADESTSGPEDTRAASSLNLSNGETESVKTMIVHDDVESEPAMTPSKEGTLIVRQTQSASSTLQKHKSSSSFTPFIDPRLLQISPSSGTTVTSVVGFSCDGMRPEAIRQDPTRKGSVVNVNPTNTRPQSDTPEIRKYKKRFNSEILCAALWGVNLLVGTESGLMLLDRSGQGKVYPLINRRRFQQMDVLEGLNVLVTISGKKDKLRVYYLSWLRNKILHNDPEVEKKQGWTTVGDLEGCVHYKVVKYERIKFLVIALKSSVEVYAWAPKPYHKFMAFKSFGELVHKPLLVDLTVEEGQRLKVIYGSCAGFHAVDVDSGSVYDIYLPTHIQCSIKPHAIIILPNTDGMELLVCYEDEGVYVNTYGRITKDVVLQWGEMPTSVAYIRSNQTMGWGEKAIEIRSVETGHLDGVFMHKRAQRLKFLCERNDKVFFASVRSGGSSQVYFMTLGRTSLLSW
# Chain of Mast/stem cell growth factor receptor Kit (Homo sapiens), P10721 [V559D,V654A] (P10721 whole entry V559D/V654A): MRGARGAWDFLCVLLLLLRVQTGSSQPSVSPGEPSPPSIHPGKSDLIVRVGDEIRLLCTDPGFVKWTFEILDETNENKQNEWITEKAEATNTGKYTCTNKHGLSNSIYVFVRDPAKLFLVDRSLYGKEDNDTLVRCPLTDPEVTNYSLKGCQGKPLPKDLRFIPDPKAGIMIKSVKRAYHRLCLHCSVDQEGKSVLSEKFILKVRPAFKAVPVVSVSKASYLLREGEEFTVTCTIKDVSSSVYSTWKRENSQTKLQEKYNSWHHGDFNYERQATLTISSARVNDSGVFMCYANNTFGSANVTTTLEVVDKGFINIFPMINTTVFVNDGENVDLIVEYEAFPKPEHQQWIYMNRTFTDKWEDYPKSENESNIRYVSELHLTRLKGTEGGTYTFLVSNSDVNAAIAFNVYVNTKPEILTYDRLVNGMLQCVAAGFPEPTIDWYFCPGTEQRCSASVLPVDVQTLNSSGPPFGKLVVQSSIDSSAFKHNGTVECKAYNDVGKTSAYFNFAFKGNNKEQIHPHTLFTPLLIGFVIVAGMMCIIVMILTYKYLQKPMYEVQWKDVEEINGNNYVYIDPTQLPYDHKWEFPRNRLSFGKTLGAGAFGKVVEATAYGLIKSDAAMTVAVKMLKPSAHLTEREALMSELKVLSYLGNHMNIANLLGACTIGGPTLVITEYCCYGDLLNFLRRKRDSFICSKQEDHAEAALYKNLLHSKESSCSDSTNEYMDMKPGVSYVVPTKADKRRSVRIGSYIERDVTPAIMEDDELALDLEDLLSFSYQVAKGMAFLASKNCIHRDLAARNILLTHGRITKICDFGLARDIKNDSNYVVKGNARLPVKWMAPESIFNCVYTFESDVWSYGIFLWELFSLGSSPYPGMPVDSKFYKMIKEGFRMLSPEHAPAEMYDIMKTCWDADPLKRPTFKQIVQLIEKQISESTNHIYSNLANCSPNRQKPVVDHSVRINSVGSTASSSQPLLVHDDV
# Chain of Serine/threonine-protein kinase RIO2 (Homo sapiens) (Q9BVS4 whole entry, looked up): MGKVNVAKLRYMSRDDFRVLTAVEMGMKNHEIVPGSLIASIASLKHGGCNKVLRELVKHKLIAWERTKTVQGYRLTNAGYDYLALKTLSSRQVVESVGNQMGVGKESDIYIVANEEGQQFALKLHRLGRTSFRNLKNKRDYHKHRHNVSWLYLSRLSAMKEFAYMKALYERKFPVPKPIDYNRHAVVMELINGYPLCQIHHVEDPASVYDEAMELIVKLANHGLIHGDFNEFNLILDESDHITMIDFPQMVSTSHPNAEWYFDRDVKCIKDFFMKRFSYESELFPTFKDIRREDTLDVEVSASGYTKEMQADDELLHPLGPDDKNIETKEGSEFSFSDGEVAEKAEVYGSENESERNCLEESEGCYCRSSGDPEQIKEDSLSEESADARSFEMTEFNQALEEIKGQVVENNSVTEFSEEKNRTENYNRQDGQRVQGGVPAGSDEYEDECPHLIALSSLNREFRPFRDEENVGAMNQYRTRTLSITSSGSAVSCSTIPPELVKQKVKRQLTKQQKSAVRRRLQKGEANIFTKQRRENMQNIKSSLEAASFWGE
# Chain of Serine/threonine-protein kinase PRP4 homolog (Homo sapiens) (Q13523 whole entry): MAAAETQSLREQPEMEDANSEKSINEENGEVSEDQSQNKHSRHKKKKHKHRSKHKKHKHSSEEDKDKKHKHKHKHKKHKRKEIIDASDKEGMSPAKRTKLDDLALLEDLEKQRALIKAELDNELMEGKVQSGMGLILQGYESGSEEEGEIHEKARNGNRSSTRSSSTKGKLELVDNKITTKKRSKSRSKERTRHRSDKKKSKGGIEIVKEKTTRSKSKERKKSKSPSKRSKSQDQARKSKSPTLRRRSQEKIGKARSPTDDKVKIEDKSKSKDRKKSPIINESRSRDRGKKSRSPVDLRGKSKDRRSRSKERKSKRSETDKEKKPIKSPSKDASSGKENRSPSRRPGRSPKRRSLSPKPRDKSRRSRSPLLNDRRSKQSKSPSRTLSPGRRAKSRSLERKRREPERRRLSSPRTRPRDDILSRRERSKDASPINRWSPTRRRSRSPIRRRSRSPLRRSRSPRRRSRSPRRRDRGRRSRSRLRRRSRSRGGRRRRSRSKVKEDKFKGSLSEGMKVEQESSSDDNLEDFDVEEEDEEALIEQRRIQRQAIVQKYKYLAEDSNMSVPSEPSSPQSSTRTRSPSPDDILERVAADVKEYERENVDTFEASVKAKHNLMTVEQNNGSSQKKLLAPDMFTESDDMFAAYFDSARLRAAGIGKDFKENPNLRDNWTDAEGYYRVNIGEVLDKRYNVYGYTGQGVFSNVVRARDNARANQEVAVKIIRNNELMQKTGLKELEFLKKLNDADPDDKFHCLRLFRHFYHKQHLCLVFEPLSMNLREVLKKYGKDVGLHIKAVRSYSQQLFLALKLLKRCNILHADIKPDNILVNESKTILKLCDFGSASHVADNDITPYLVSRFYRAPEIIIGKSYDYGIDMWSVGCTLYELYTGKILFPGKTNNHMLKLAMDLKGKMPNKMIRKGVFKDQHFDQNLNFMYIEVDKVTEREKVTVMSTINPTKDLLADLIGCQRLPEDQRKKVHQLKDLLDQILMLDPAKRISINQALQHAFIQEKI
# Chain of Dual specificity mitogen-activated protein kinase kinase 2 (Homo sapiens) (P36507 whole entry): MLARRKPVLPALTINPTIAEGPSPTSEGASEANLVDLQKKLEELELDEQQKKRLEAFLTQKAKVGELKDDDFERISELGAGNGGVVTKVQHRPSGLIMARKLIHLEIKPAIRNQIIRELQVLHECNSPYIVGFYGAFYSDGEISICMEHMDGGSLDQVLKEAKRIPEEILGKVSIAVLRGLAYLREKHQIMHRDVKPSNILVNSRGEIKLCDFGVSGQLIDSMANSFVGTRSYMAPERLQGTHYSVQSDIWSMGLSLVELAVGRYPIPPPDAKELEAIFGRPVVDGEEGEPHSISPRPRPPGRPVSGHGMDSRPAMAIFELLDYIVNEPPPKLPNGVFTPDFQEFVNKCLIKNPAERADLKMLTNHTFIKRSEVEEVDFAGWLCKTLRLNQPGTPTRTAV
compound,measurement,setting,value
CCCOc1ccc([C@H]2[C@H](C(=O)O)[C@@H](c3ccc4c(c3)OCO4)CN2CC(=O)Nc2c(CC)cccc2CC)cc1 [A-192621],residual activity,[1],77%
same,residual activity,[2],88%
same,% Inhibition of Control Specific Binding (Mean n=2),[3],18.3%
same,residual activity,[4],94%
same,residual activity,[5],100%
same,residual activity,[6],74%
same,residual activity,[7],90%
same,residual activity,[8],98%
same,residual activity,[9],79%
same,residual activity,[10],98%
same,"inhibition at 60 min, 10 µM",[11],7.9%
same,residual activity,[12],81%
same,residual activity,[13],84%
same,% Inhibition of Control Specific Binding (Mean n=2),[14],-1.1%
same,residual activity,[15],72%
same,% Inhibition of Control Specific Binding (Mean n=2),[16],10.1%
same,residual activity,[17],93%
same,residual activity,[18],61%
same,residual activity,[19],58%
same,residual activity,[20],62%
same,residual activity,[21],93%
same,residual activity,[22],95%
same,residual activity,[23],82%
same,residual activity,[24],79%
same,residual activity,[25],100%
same,residual activity,[26],74%
same,residual activity,[27],91%
same,residual activity,[28],63%
same,% Inhibition of Control Values (Mean n=2),[29],13.2%
same,residual activity,[30],100%
same,residual activity,[31],71%
same,residual activity,[32],93%
same,residual activity,[33],100%
same,residual activity,[34],93%
same,residual activity,[35],90%
same,residual activity,[36],91%
same,residual activity,[37],69%
same,residual activity,[38],93%
same,residual activity,[39],52%
same,residual activity,[40],87%
same,residual activity,[41],84%
same,residual activity,[42],66%
same,residual activity,[43],100%
same,residual activity,[44],65%
CCCOc1ccc([C@@H]2[C@@H](C(=O)O)[C@H](c3ccc4c(c3)OCO4)CN2CC(=O)Nc2c(CC)cccc2CC)cc1 [A-1806262],residual activity,[1],89%
same,residual activity,[2],97%
same,% Inhibition of Control Specific Binding (Mean n=2),[3],-3%
same,residual activity,[4],93%
same,residual activity,[5],100%
same,residual activity,[6],91%
same,residual activity,[7],97%
same,residual activity,[8],94%
same,residual activity,[9],86%
same,residual activity,[10],79%
same,"inhibition at 60 min, 10 µM",[11],9.9%
same,residual activity,[12],100%
same,residual activity,[13],97%
same,% Inhibition of Control Specific Binding (Mean n=2),[14],-0.8%
same,residual activity,[15],94%
same,% Inhibition of Control Specific Binding (Mean n=2),[16],10.7%
same,residual activity,[17],88%
same,residual activity,[18],92%
same,residual activity,[19],81%
same,residual activity,[20],89%
same,residual activity,[21],95%
same,residual activity,[22],90%
same,residual activity,[23],100%
same,residual activity,[24],98%
same,residual activity,[25],100%
same,residual activity,[26],77%
same,residual activity,[27],100%
same,residual activity,[28],75%
same,% Inhibition of Control Values (Mean n=2),[29],2.3%
same,residual activity,[30],100%
same,residual activity,[31],98%
same,residual activity,[32],93%
same,residual activity,[33],86%
same,residual activity,[34],86%
same,residual activity,[35],94%
same,residual activity,[36],93%
same,residual activity,[37],100%
same,residual activity,[38],95%
same,residual activity,[39],100%
same,residual activity,[40],92%
same,residual activity,[41],83%
same,residual activity,[42],52%
same,residual activity,[43],100%
same,residual activity,[44],80%
